Results reported in publication PMC10197885, “Anomanolide C suppresses tumor progression and metastasis by ubiquitinating GPX4-driven autophagy-dependent ferroptosis in triple negative breast cancer” (International Journal of Biological Sciences, 2023).

Target: T1, GPX4 (Homo sapiens, UniProt P36969)
T1 sequence (P36969 28-197): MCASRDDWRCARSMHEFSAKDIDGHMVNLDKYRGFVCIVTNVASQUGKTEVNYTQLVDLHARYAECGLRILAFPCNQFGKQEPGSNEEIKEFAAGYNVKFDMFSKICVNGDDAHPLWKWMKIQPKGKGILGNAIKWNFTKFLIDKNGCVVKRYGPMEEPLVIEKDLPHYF
Assay: SPR (Biacore, GPX4 coupled to CM5 chip); supported by CETSA in MDA-MB-231 cells
Format: binding
Description: SPR (Biacore, GPX4 coupled to CM5 chip); supported by CETSA in MDA-MB-231 cells on GPX4 | AC binds to GPX4 protein as shown by surface plasmon resonance (SPR) measurements.

`C[C@@]12CC([C@@]3(O)[C@H](O)C[C@H]4[C@@H]5C[C@H]6O[C@]67[C@@H](O)C=CC(=O)[C@]7(C)[C@H]5CC[C@@]43C)[C@@H](C1)OC(=O)[C@]2(C)O` (stereo partly shown) [AC, Anomanolide C] gave a Kd of about 24 µM.
